The conditions of data set [1]: disulfide bond, water.
A further data set addresses T1, P-selectin (Homo sapiens, UniProt P16109).
T1 construct: P-selectin is isolated from human platelet lysates; from tissue; host or cells: human platelets (outdated platelet packs from a blood bank)
T1 sequence (P16109 42-830): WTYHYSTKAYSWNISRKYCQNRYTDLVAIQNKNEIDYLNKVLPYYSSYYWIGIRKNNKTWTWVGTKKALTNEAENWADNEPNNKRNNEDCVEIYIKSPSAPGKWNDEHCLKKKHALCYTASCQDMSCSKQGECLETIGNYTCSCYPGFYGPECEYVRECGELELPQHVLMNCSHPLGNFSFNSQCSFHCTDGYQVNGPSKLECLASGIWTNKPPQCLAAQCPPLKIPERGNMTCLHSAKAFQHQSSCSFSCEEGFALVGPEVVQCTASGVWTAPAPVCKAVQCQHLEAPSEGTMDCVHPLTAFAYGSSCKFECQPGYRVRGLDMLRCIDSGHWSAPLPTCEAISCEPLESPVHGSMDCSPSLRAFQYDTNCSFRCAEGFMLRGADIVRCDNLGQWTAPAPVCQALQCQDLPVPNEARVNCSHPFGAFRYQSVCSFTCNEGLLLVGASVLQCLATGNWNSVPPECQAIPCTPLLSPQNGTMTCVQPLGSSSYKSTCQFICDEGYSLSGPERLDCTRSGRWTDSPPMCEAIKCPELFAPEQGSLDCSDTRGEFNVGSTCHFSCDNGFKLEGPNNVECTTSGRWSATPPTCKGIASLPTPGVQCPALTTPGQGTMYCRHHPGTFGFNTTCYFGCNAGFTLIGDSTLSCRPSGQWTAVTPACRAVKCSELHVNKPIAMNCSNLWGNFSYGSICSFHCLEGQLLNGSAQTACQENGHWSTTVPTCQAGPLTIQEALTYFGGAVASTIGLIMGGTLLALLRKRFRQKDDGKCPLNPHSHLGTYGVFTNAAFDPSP
Description: Inhibition of human neutrophil adhesion to purified P-selectin immobilized on plastic wells. To be noted: inhibiting the binding of human neutrophils to P-selectin. Format: cell-based. A digest of the protocol: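 Isolated human neutrophils (2×10^5 per well) in HBSS with Ca2+/Mg2+ and HSA added to wells coated overnight at 4° C with platelet-derived P-selectin (5 micrograms/mL), HSA-blocked; 20 min at 22° C. Nonadherent cells removed by inverted centrifugation at 150 g; adherent cells quantified by myeloperoxidase activity.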

The structures appear in SMILES notation. Read-outs that look alike come from different tables or passages of the source. Where a SMILES comes first, the peptide text is derived from it. Bridges are numbered along the chain shown (N, C = ends). [ ]: non-standard residue; d: D form.

As usually defined, the IC50 is the point on the concentration scale where inhibition reaches its midpoint. Lower therefore signals inhibition by little substance. Compound `CC(C)[C@@H](NC(=O)[C@@H](Cc1c[nH]c2ccccc12)NC(=O)[C@H](NC(=O)[C@@H](Cc1c[nH]c2ccccc12)NC(=O)[C@H]1CSSC[C@@H](NC(=O)[C@@H](CCCCN)NC(=O)[C@H](N)CCCNC(=N)N)C(=O)NCC(=O)N[C@@H](CC(=O)O)C(=O)N1)[C@H](C)O)C(N)=O` [(42)] (H-[dR][dK][dC]GD[dC][dW][dT][dW][dV]-NH2; disulfide 3-6) had a ring closure, yield of all isomers in data set [1] (from CC(C)[C@@H](NC(=O)[C@@H](Cc1c[nH]c2ccccc12)NC(=O)[C@H](NC(=O)[C@@H](Cc1c[nH]c2ccccc12)NC(=O)[C@@H](CS)NC(=O)[C@H](CC(=O)O)NC(=O)CNC(=O)[C@@H](CS)NC(=O)[C@@H](CCCCN)NC(=O)[C@H](N)CCCNC(=N)N)[C@H](C)O)C(N)=O, Cu wire, dilute NH4OH, pH 8, 3.19 mM, 20.0 h) of 9.7%. Besides, the half-maximal inhibitory concentration (IC50) at P-selectin amounted to 944 µM.

As to `CC(C)[C@@H](NC(=O)[C@@H](Cc1c[nH]c2ccccc12)NC(=O)[C@H](NC(=O)[C@@H](Cc1c[nH]c2ccccc12)NC(=O)[C@H]1CSSC[C@@H](NC(=O)[C@@H](CCCCN)NC(=O)[C@H](N)CCCNC(=N)N)C(=O)N[C@H](CCCNC(=N)N)C(=O)N[C@@H](Cc2ccccc2)C(=O)N1)[C@H](C)O)C(N)=O` [(45)] (H-[dR][dK][dC][dR]F[dC][dW][dT][dW][dV]-NH2; disulfide 3-6), in data set [1] (from CC(C)[C@@H](NC(=O)[C@@H](Cc1c[nH]c2ccccc12)NC(=O)[C@H](NC(=O)[C@@H](Cc1c[nH]c2ccccc12)NC(=O)[C@@H](CS)NC(=O)[C@H](Cc1ccccc1)NC(=O)[C@@H](CCCNC(=N)N)NC(=O)[C@@H](CS)NC(=O)[C@@H](CCCCN)NC(=O)[C@H](N)CCCNC(=N)N)[C@H](C)O)C(N)=O, DMSO, 0.357 mM, 25.0 °C, 48.0 h), the ring closure, yield of all isomers worked out at 15.5%. Moreover, on P-selectin, the 50% inhibitory concentration (IC50) worked out at 263 µM.

In data set [1] (from CC(C)[C@@H](NC(=O)[C@@H](Cc1c[nH]c2ccccc12)NC(=O)[C@H](NC(=O)[C@@H](Cc1c[nH]c2ccccc12)NC(=O)[C@@H](CS)NC(=O)[C@H](Cc1ccccc1)NC(=O)[C@@H](Cc1c[nH]cn1)NC(=O)[C@@H](CS)NC(=O)[C@@H](CCCCN)NC(=O)[C@H](N)CCCNC(=N)N)[C@H](C)O)C(N)=O, DMSO, 0.698 mM, 24.0 h), `CC(C)[C@@H](NC(=O)[C@@H](Cc1c[nH]c2ccccc12)NC(=O)[C@H](NC(=O)[C@@H](Cc1c[nH]c2ccccc12)NC(=O)[C@H]1CSSC[C@@H](NC(=O)[C@@H](CCCCN)NC(=O)[C@H](N)CCCNC(=N)N)C(=O)N[C@H](Cc2c[nH]cn2)C(=O)N[C@@H](Cc2ccccc2)C(=O)N1)[C@H](C)O)C(N)=O` [(47)] (H-[dR][dK][dC][dH]F[dC][dW][dT][dW][dV]-NH2; disulfide 3-6) returned a ring closure, yield of all isomers of 3.5%. This compound had an IC50 at P-selectin of 7 µM.

In turn, `CC[C@@H](C)[C@H]1NC(=O)CNC(=O)[C@H](NC(=O)[C@@H](CCCCN)NC(=O)[C@H](N)CCCNC(=N)N)CSSC[C@H](C(=O)N[C@H](Cc2c[nH]c3ccccc23)C(=O)N[C@@H](C(=O)N[C@H](Cc2c[nH]c3ccccc23)C(=O)N[C@@H](C(N)=O)C(C)C)[C@H](C)O)NC1=O` [(52)] (H-[dR][dK][dC]G[dI][dC][dW][dT][dW][dV]-NH2; disulfide 3-6) yielded a ring closure, yield of all isomers in data set [1] (from CC[C@@H](C)[C@@H](NC(=O)CNC(=O)[C@@H](CS)NC(=O)[C@@H](CCCCN)NC(=O)[C@H](N)CCCNC(=N)N)C(=O)N[C@H](CS)C(=O)N[C@H](Cc1c[nH]c2ccccc12)C(=O)N[C@@H](C(=O)N[C@H](Cc1c[nH]c2ccccc12)C(=O)N[C@@H](C(N)=O)C(C)C)[C@H](C)O, DMSO, 0.341 mM, 25.0 °C, 72.0 h) of 16.6%. This compound also came in with a half-inhibitory concentration (IC50) on P-selectin of 10.3 µM.

In the case of `CC(C)C[C@H]1NC(=O)CNC(=O)[C@H](NC(=O)[C@@H](CCCCN)NC(=O)[C@H](N)CCCNC(=N)N)CSSC[C@H](C(=O)N[C@H](Cc2c[nH]c3ccccc23)C(=O)N[C@@H](C(=O)N[C@H](Cc2c[nH]c3ccccc23)C(=O)N[C@@H](C(N)=O)C(C)C)[C@H](C)O)NC1=O` [(53)] (H-[dR][dK][dC]G[dL][dC][dW][dT][dW][dV]-NH2; disulfide 3-6), the ring closure, yield of all isomers in data set [1] (from CC(C)C[C@@H](NC(=O)CNC(=O)[C@@H](CS)NC(=O)[C@@H](CCCCN)NC(=O)[C@H](N)CCCNC(=N)N)C(=O)N[C@H](CS)C(=O)N[C@H](Cc1c[nH]c2ccccc12)C(=O)N[C@@H](C(=O)N[C@H](Cc1c[nH]c2ccccc12)C(=O)N[C@@H](C(N)=O)C(C)C)[C@H](C)O, DMSO, 0.252 mM, 25.0 °C, 48.0 h) amounted to 17.4%. This compound returned a half-maximal inhibitory concentration (IC50) on P-selectin of 18.7 µM.

Take `CC(C)[C@@H](NC(=O)[C@@H](Cc1c[nH]c2ccccc12)NC(=O)[C@H](NC(=O)[C@@H](Cc1c[nH]c2ccccc12)NC(=O)[C@H]1CSSC[C@@H](NC(=O)[C@@H](CCCCN)NC(=O)[C@H](N)CCCNC(=N)N)C(=O)NCC(=O)N[C@H](CCCCN)C(=O)N1)[C@H](C)O)C(N)=O` [(55)] (H-[dR][dK][dC]G[dK][dC][dW][dT][dW][dV]-NH2; disulfide 3-6): in data set [1] (from CC(C)[C@@H](NC(=O)[C@@H](Cc1c[nH]c2ccccc12)NC(=O)[C@H](NC(=O)[C@@H](Cc1c[nH]c2ccccc12)NC(=O)[C@@H](CS)NC(=O)[C@@H](CCCCN)NC(=O)CNC(=O)[C@@H](CS)NC(=O)[C@@H](CCCCN)NC(=O)[C@H](N)CCCNC(=N)N)[C@H](C)O)C(N)=O, DMSO, 0.175 mM, 120.0 h), the ring closure, yield of all isomers amounted to 10.6%. The compound also showed an IC50 on P-selectin of 59.7 µM.

For the compound `CC(C)[C@@H](NC(=O)[C@@H](Cc1c[nH]c2ccccc12)NC(=O)[C@H](NC(=O)[C@@H](Cc1c[nH]c2ccccc12)NC(=O)[C@H]1CSSC[C@@H](NC(=O)[C@@H](CCCCN)NC(=O)[C@H](N)CCCNC(=N)N)C(=O)N2CCC[C@@H]2C(=O)N[C@@H](Cc2ccccc2)C(=O)N1)[C@H](C)O)C(N)=O` [(57)] (H-[dR][dK][dC][dP]F[dC][dW][dT][dW][dV]-NH2; disulfide 3-6), the ring closure, yield of all isomers in data set [1] (from CC(C)[C@@H](NC(=O)[C@@H](Cc1c[nH]c2ccccc12)NC(=O)[C@H](NC(=O)[C@@H](Cc1c[nH]c2ccccc12)NC(=O)[C@@H](CS)NC(=O)[C@H](Cc1ccccc1)NC(=O)[C@H]1CCCN1C(=O)[C@@H](CS)NC(=O)[C@@H](CCCCN)NC(=O)[C@H](N)CCCNC(=N)N)[C@H](C)O)C(N)=O, air, Cu wire, NH4OH, 0.42 mM, 25.0 °C, 6.0 h) stood at 8.7%. The IC50 on P-selectin amounted to 70.4 µM.

Source of the values: US5753617A, “Peptide inhibitors of cellular adhesion” (Centocor, Inc., priority 1995, dated 1998).
